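Method: 48-hour compound exposure of cells in 96-well plates, five concentrations, linear interpolation of endpoints. GI50 marks 50% less growth. TGI: total growth inhibition.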
Tests used:
Assay in all cases: NCI anticancer screen, dose series, 48 h
K-562 leukemia = tested on: K-562 leukemia
NCI-H23 lung = tested on: NCI-H23 lung
HCC-2998 colon = tested on: HCC-2998 colon
ACHN renal = tested on: ACHN renal
SK-MEL-5 melanoma = tested on: SK-MEL-5 melanoma
LOX IMVI melanoma = tested on: LOX IMVI melanoma
MDA-MB-231 breast = tested on: MDA-MB-231 breast
U251 CNS = tested on: U251 CNS
786-0 renal = tested on: 786-0 renal
SK-MEL-28 melanoma = tested on: SK-MEL-28 melanoma

Compound | GI50 (K-562 leukemia) [µM] | TGI (K-562 leukemia) [µM] | GI50 (NCI-H23 lung) [µM] | TGI (NCI-H23 lung) [µM] | GI50 (HCC-2998 colon) [µM] | TGI (HCC-2998 colon) [µM] | GI50 (ACHN renal) [µM] | TGI (ACHN renal) [µM] | GI50 (SK-MEL-5 melanoma) [µM] | TGI (SK-MEL-5 melanoma) [µM] | GI50 (LOX IMVI melanoma) [µM] | TGI (LOX IMVI melanoma) [µM] | GI50 (MDA-MB-231 breast) [µM] | TGI (MDA-MB-231 breast) [µM] | GI50 (U251 CNS) [µM] | TGI (U251 CNS) [µM] | GI50 (786-0 renal) [µM] | TGI (786-0 renal) [µM] | GI50 (SK-MEL-28 melanoma) [µM] | TGI (SK-MEL-28 melanoma) [µM]
NCCCCC(NC(=O)C(N)CCCN=C(N)N)C(=O)NC(CCCCN)C(=O)NC(CCCN=C(N)N)C(=O)NC(CCCN=C(N)N)C(=O)NC(CCC(N)=O)C(=O)NC(CCCN=C(N)N)C(=O)NC(CCCN=C(N)N)C(=O)NC(CCCN=C(N)N)C(=O)NCC(=O)NCC(=O)O (stereo not given) | > 50 | > 50 | > 50 | > 50 | > 50 | > 50 | > 50 | > 50 | > 50 | > 50 | > 50 | > 50 | > 50 | > 50 | > 50 | > 50 | > 50 | > 50 | > 50 | > 50
CCSC[C@@H]1C[C@](O)(c2ccc(Cl)cc2)[C@@H](c2ccc(Cl)cc2)O1 | 18.8 | 44.2 | 19.3 | 41.6 | 20.3 | 39.3 | 19.6 | 36.6 | 15.3 | 28.7 | 18.5 | 40.7 | 18.2 | 35.4 | 18.3 | 36.2 | 17 | 31.9 | 16.2 | 32.8
CCCc1nn(C)c2c(=O)[nH]c(-c3cc(S(=O)(=O)N4CCN(C)CC4)ccc3OCC)nc12 | > 100 | > 100 | > 100 | > 100 | > 100 | > 100 | > 100 | > 100 | > 100 | > 100 | > 100 | > 100 | > 100 | > 100 | > 100 | > 100 | > 100 | > 100 | > 100 | > 100
CC1=CCC2CC1C(C(=O)c1c[nH]c3ccccc13)=NC2(C)C (stereo not given) |  | > 100 |  | > 100 |  | > 100 |  | > 100 |  | > 100 |  | > 100 |  | > 100 |  | > 100 |  | > 100 |  | > 100
Cc1ccc2c(C(C[N+](=O)[O-])c3ccccc3)c(-c3ccccc3)[nH]c2c1 (stereo not given) | 7.14 | > 95 | 47 | > 95 | 73.7 | > 95 | 57.2 | > 95 | 50.6 | > 95 | 38.2 | > 95 | 35.9 | > 95 | 32 | > 95 | 40.3 | > 95 | > 95 | > 95
COc1cc2nc(Nc3cccc(Cl)c3)nc(N)c2cc1OC | 3.67 | > 36.1 | 14.2 | 33.2 | 1.89 | 3.57 | 11.4 | 23.8 | 3.27 | 11.2 | 2.45 | 6.14 | 4.28 | 14.5 | 3.08 | 9.96 | 1.85 | 3.73 | 1.93 | 3.78
OC1CC2CCC(C1)N2CCCN1c2ccccc2Sc2ccc(Cl)cc21 (stereo not given) |  | 4.61 |  | 8.12 |  | 0.959 |  | 7.07 |  | 3.13 |  | 3.33 |  | 3.66 |  | 3.45 |  | 3.54 |  | 3.69
